We go through 18 compounds from US9994570B2, “Bridged diazepane orexin receptor antagonists” (MERCK SHARP & DOHME CORP., priority 2014, dated 2018).

For one test, the target named is T1, rat orexin-1 receptor (Rattus norvegicus, UniProt P56718).
T1 construct: expressed in transfected cells; host or cells: CHO cells (grown under G418 selection)
T1 sequence (P56718 1-416): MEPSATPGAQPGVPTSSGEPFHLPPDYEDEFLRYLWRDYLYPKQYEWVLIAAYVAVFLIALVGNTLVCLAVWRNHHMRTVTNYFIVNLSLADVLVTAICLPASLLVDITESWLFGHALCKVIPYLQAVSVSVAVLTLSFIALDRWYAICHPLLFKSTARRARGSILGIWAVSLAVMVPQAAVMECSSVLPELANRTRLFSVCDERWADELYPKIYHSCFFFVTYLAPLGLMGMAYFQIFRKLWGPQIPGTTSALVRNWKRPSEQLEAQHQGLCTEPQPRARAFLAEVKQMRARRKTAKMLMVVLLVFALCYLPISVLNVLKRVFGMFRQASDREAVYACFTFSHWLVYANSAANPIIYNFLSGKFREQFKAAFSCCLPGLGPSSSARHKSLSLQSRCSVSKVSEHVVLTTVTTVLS
Kind of test: FLIPR Ca2+ flux assay, OX1R. Conditions: CHO cells expressing the rat orexin-1 receptor; agonist 70 pM Ala-6,12 orexin-A. Format: cell-based. The procedure:
(§1) The utility of the compounds in accordance with the present invention as orexin receptor OX1R and/or OX2R antagonists may be readily determined without undue experimentation by methodology well known in the art, including the “FLIPR Ca^2+ Flux Assay” (Okumura et al., Biochem. Biophys. Res. Comm. 280:976-981, 2001). In a typical experiment the OX1 and OX2 receptor antagonistic activity of the compounds of the present invention was determined in accordance with the following experimental method. For intracellular calcium measurements, Chinese hamster ovary (CHO) cells expressing the rat orexin-1 receptor or the human orexin-2 receptor, are grown in Iscove's modified DMEM containing 2 mM L-glutamine, […], 1% hypoxanthine-thymidine supplement, 100 U/ml penicillin, 100 μg/ml streptomycin and 10% heat-inactivated fetal calf serum (FCS). The cells are seeded at 20,000 cells/well into Becton-Dickinson black 384-well clear bottom sterile plates coated with poly-D-lysine. All reagents were from GIBCO-Invitrogen Corp. The seeded plates are incubated overnight at 37° C. and 5% CO2. Ala-6,12 human orexin-A as the agonist is prepared as a 1 mM stock solution in 1% bovine serum albumin (BSA) and diluted in assay buffer (HBSS containing 20 mM HEPES, 0.1% BSA and 2.5 mM probenecid, pH7.4) for use in the assay at a final concentration of 70 pM. Test compounds are prepared as 10 mM stock solution in DMSO, then diluted in 384-well plates, first in DMSO, then assay buffer. On the day of the assay, cells are washed 3 times with 100 μl assay buffer and then incubated for 60 min (37° C., 5% CO2) in 60 μl assay buffer containing 1 μM Fluo-4AM ester, 0.02% pluronic acid, and 1% BSA. The dye loading solution is then aspirated and cells are washed 3 times with 100 μl assay buffer. 30 μl of that same buffer is left in each well. Within the Fluorescent Imaging Plate Reader (FLIPR, Molecular Devices), test compounds are added to the plate in a volume of 25 μl, incubated for 5 min and finally 25 μl of agonist is added. Fluorescence is measured for each well at 1 second intervals for 5 minutes and the height of each fluorescence peak is compared to the height of the fluorescence peak induced by 70 pM Ala-6,12 orexin-A with buffer in place of antagonist. For each antagonist, IC50 value (the concentration of compound needed to inhibit 50% of the agonist response) is determined. Alternatively, compound potency can be assessed by a radioligand binding assay (described in Bergman et. al. Bioorg. Med. Chem. Lett. 2008, 18, 1425-1430) in which the inhibition constant (Ki) is determined in membranes prepared from CHO cells expressing either the OX1 or OX2 receptor. The intrinsic orexin receptor antagonist activity of a compound which may be used in the present invention may be determined by these assays.
Background: Calcium assays in cells follow changes in intracellular calcium, usually with a dye or a luminescent sensor.

The target in a further test is T2, human orexin-2 receptor (Homo sapiens, UniProt O43614).
T2 construct: expressed in transfected cells; host or cells: CHO cells (grown under G418 selection)
T2 sequence (O43614 1-444): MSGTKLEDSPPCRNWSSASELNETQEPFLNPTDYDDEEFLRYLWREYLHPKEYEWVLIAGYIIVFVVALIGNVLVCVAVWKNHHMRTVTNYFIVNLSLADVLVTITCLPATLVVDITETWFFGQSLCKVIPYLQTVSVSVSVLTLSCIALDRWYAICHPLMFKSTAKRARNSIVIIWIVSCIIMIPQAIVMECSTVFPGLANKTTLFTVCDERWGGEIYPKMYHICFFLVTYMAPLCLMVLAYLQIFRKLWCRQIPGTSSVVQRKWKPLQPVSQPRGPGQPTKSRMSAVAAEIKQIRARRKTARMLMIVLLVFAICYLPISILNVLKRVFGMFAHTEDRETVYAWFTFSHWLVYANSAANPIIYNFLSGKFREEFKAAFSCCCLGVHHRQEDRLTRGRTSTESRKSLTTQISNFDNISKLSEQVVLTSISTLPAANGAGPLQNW
Description: FLIPR Ca2+ flux assay, OX2R. Format: cell-based. Conditions: for IC50: CHO cells expressing the human orexin-2 receptor, agonist 70 pM Ala-6,12 orexin-A; for Fold Selective: OX1R FLIPR / OX2R FLIPR. The protocol:
as §1

One may read the IC50 as the concentration at which inhibition is half-maximal. At rat orexin-1 receptor, `Cc1cc(C)nc(N2CC3CC2CN(C(=O)c2nccnc2-n2cccn2)C3)n1` (stereo not drawn) [Example 20, 6-(4,6-dimethylpyrimidin-2-yl)-3-{[3-(1H-pyrazol-1-yl)pyrazin-2-yl]carbonyl}-3,6-diazabicyclo[3.2.1]octane] came in with an IC50 of 3400 nM. Moreover, on human orexin-2 receptor, the half-maximal inhibitory concentration (IC50) amounted to 50 nM and the “Fold Selective” value worked out at 68.
In the case of `Cc1cc(C)nc(N2CC3CC2CN(C(=O)c2cccnc2OC(C)C)C3)n1` (stereo not drawn) [Example 21, 6-(4,6-dimethylpyrimidin-2-yl)-3-{[2-(1-methylethoxy)pyridin-3-yl]carbonyl}-3,6-diazabicyclo[3.2.1]octane], the half-maximal inhibitory concentration (IC50) was determined as 2670 nM on rat orexin-1 receptor and 18 nM on human orexin-2 receptor. The “Fold Selective” value on human orexin-2 receptor came out at 148.
For the compound `Cc1cc(C)nc(N2CC3CC2CN(C(=O)c2cccnc2OCC(F)(F)F)C3)n1` (stereo not drawn) [Example 22, 6-(4,6-dimethylpyrimidin-2-yl)-3-{[2-(2,2,2-trifluoroethoxy)pyridin-3-yl]carbonyl}-3,6-diazabicyclo[3.2.1]octane], the IC50 at rat orexin-1 receptor worked out at 1040 nM; on human orexin-2 receptor, 13 nM. In addition, the “Fold Selective” value at human orexin-2 receptor amounted to 80.
For `Cc1cc(C)nc(N2CC3CC2CN(C(=O)c2cccnc2-c2noc(C)n2)C3)n1` (stereo not drawn) [Example 23, 6-(4,6-dimethylpyrimidin-2-yl)-3-{[2-(5-methyl-1,2,4-oxadiazol-3-yl)pyridin-3-yl]carbonyl}-3,6-diazabicyclo[3.2.1]octane], the IC50 on rat orexin-1 receptor is more than 10000 nM; at human orexin-2 receptor, 103 nM. In addition, at human orexin-2 receptor, the “Fold Selective” value is more than 97.
At rat orexin-1 receptor, `Cc1cc(C)nc(N2CC3CC2CN(C(=O)c2cccc(F)c2C2CC2)C3)n1` (stereo not drawn) [Example 24, (2-cyclopropyl-3-fluorophenyl)(6-(4,6-dimethylpyrimidin-2-yl)-3,6-diazabicyclo[3.2.1]octan-3-yl)methanone] yielded an IC50 of 743 nM. Besides, on human orexin-2 receptor, the IC50 came out at 17 nM and the “Fold Selective” value came to 44.
`Cc1cc(C)nc(N2CC3CC2CN(C(=O)c2ccccc2CC(F)(F)F)C3)n1` (stereo not drawn) [Example 25, 6-(4,6-dimethylpyrimidin-2-yl)-3-{[2-(2,2,2-trifluoroethyl)phenyl]carbonyl}-3,6-diazabicyclo[3.2.1]octane] showed an IC50 at rat orexin-1 receptor of 2020 nM. At human orexin-2 receptor, the IC50 is 17 nM and the “Fold Selective” value was determined as 119.
The like results for `Cc1cc(C)nc(N2CC3CC2CN(C(=O)c2ccccc2OCC(F)(F)F)C3)n1` (stereo not drawn) [Example 26, 6-(4,6-dimethylpyrimidin-2-yl)-3-{[2-(2,2,2-trifluoroethoxy)-phenyl]carbonyl}-3,6-diazabicyclo[3.2.1]octane] were, in that order, 1140 nM, 10 nM and 114.
The corresponding values for `CCCc1ccccc1C(=O)N1CC2CC(C1)N(c1nc(C)cc(C)n1)C2` (stereo not drawn) [Example 27, 6-(4,6-dimethylpyrimidin-2-yl)-3-[(2-propylphenyl)carbonyl]-3,6-diazabicyclo[3.2.1]octane] are 1180 nM, 14 nM and 84.
`Cc1cc(C)nc(N2CC3CC2CN(C(=O)c2ccccc2CS(C)(=O)=O)C3)n1` (stereo not drawn) [Example 28, 6-(4,6-dimethylpyrimidin-2-yl)-3-({2-[(methylsulfonyl)methyl]phenyl}carbonyl)-3,6-diazabicyclo[3.2.1]octane] yielded an IC50 at rat orexin-1 receptor of more than 10000 nM. Besides, at human orexin-2 receptor, the concentration for half-maximal inhibition (IC50) stood at 47 nM and the “Fold Selective” value is on record as more than 213.
The like results for `Cc1cc(C)nc(N2CC3CC2CN(C(=O)c2ccccc2C2(C#N)CC2)C3)n1` (stereo not drawn) [Example 29, 1-(2-{[6-(4,6-dimethylpyrimidin-2-yl)-3,6-diazabicyclo[3.2.1]oct-3-yl]carbonyl}-phenyl)-cyclopropanecarbonitrile] were, in that order, 1120 nM, 13 nM and 86.
On rat orexin-1 receptor, `COc1ccc(C(=O)N2CC3CC(C2)N(c2nc(C)cc(C)n2)C3)c(-n2nccn2)n1` (stereo not drawn) [Example 30, 6-(4,6-dimethylpyrimidin-2-yl)-3-{[6-methoxy-2-(2H-1,2,3-triazol-2-yl)pyridin-3-yl]carbonyl}-3,6-diazabicyclo[3.2.1]octane] displayed an IC50 of more than 10000 nM. On human orexin-2 receptor, the IC50 was 117 nM and the “Fold Selective” value is listed as more than 85.
On to `Cc1cc(C)nc(N2CC3CC2CN(C(=O)c2cccnc2-n2nccn2)C3)n1` (stereo not drawn) [Example 31, 6-(4,6-dimethylpyrimidin-2-yl)-3-{[2-(2H-1,2,3-triazol-2-yl)pyridin-3-yl]carbonyl}-3,6-diazabicyclo[3.2.1]octane], for which the concentration for half-maximal inhibition (IC50) at rat orexin-1 receptor is more than 10000 nM. For the same compound, at human orexin-2 receptor, the IC50 turned out to be 90 nM and the “Fold Selective” value is listed as more than 111.
As to `Cc1cc(C)nc(N2CC3CC2CN(C(=O)c2cccnc2CC(F)(F)F)C3)n1` (stereo not drawn) [Example 32, 6-(4,6-dimethylpyrimidin-2-yl)-3-{[2-(2,2,2-trifluoroethyl)pyridin-3-yl]carbonyl}-3,6-diazabicyclo[3.2.1]octane], the half-inhibitory concentration (IC50) is more than 10000 nM on rat orexin-1 receptor and 58 nM on human orexin-2 receptor. Further, on human orexin-2 receptor, the “Fold Selective” value is listed as more than 172.
Turning to `COCCc1ccccc1C(=O)N1CC2CC(C1)N(c1nc(C)cc(C)n1)C2` (stereo not drawn) [Example 33, 6-(4,6-dimethylpyrimidin-2-yl)-3-{[2-(2-methoxyethyl)-phenyl]carbonyl}-3,6-diazabicyclo[3.2.1]octane], the IC50 at rat orexin-1 receptor was 3990 nM; at human orexin-2 receptor, 44 nM. Besides, the “Fold Selective” value on human orexin-2 receptor is 91.
Take `Cc1cc(C)nc(N2CC3CC2CN(C(=O)c2ccccc2OC(F)F)C3)n1` (stereo not drawn) [Example 34, 3-{[2-(difluoromethoxy)phenyl]carbonyl}-6-(4,6-dimethylpyrimidin-2-yl)-3,6-diazabicyclo[3.2.1]octane]: at rat orexin-1 receptor, the IC50 was found to be 2680 nM. In addition, at human orexin-2 receptor, the IC50 is 24 nM and the “Fold Selective” value is on record as 112.
Regarding `Cc1cc(C)nc(N2CC3CC2CN(C(=O)c2cccnc2C2CC2)C3)n1` (stereo not drawn) [Example 35, 3-[(2-cyclopropylpyridin-3-yl)carbonyl]-6-(4,6-dimethylpyrimidin-2-yl)-3,6-diazabicyclo[3.2.1]octane], the IC50 at rat orexin-1 receptor is more than 10000 nM. On human orexin-2 receptor, the IC50 was 47 nM and the “Fold Selective” value is reported as more than 213.
As for `Cc1cc(C)nc(N2CC3CC2CN(C(=O)c2ccccc2CC(F)F)C3)n1` (stereo not drawn) [Example 36, 3-{[2-(2,2-difluoroethyl)phenyl]carbonyl}-6-(4,6-dimethylpyrimidin-2-yl)-3,6-diazabicyclo[3.2.1]octane], on rat orexin-1 receptor, the IC50 was 2090 nM. Besides, on human orexin-2 receptor, the IC50 was 15 nM and the “Fold Selective” value came out at 139.
The like results for `Cc1cc(C)nc(N2CC3CC2CN(C(=O)c2ccccc2OCC(F)F)C3)n1` (stereo not drawn) [Example 37, 3-{[2-(2,2-difluoroethoxy)-phenyl]carbonyl}-6-(4,6-dimethylpyrimidin-2-yl)-3,6-diazabicyclo[3.2.1]octane] were, in that order, 851 nM, 14 nM and 61.
